Consider one compound from patent US11673965B2, “Method of treating metastatic triple negative breast cancer with radiotherapy combined with phosphatidyl inositol-3 kinase delta/gamma inhibitors and anti-PD-1 antibodies” (Seoul National University R&DB Foundation, priority 2019, dated 2023).

The assay has as its system 4T1-luc triple negative breast cancer cells. Briefly: Size change of tumor in triple negative breast cancer allograft mouse model. It counts as in vivo, mouse (BALB/c). The settings on record: 31st day; 4T1-luc allograft; duvelisib 4 mg/kg and/or PD-1 blockade 10 mg/kg by injection 6 times; RT 8 Gy×3. On the procedure: A triple negative breast cancer cell line (4T1-luc) was cultured in DMEM (Dulbecco's Modified Eagle's Medium, CORNING™) medium containing 10% (v/v) fetal bovine serum (FBS) and 1% (w/v) Penicillin-Streptomycin, using a cell culture flask, in a thermostat cell culture device under the condition of 37° C., 5% CO2.
6×10^5 4T1-luc triple negative breast cancer cells prepared in Example 1-1 were injected to the right hindlimb of a BALB/c female age standard (8 weeks) mice. At the 10th day after injecting each of the cancer cells, the mice with the tumor volume up to 40 mm^3 were selected, and were used for later experiments.
The triple negative breast cancer (TNBC) mouse model prepared by the method of Example 1-2 was assigned to 7 groups in total from the 10th day after cancer cell transplantation, and each treatment method was performed, and it was grouped into 7 groups so that the tumor mean volume of 7 mice was 40 mm^3 per group, and were used for later experiments.
Each treatment was progressed for 31 days after tumor transplantation. […]
On the day of each treatment, the size of tumor, the length and width were measured using Vernier caliper, and then the volume (mm^3) of tumor was calculated by the method of the following equation 1. […]

Compound `C[C@H](Nc1ncnc2nc[nH]c12)c1cc2cccc(Cl)c2c(=O)n1-c1ccccc1` [PI3K γ δ inhibitor, duvelisib] returned a Mean tumor volume of 786.59 mm^3.
